Experimental data published in patent US20240124504A1, “AROMATIC HETEROCYCLIC COMPOUND, AND PHARMACEUTICAL COMPOSITION AND APPLICATION THEREOF” (GT APEIRON THERAPEUTICS LIMITED, priority 2020, published 2024).

What was measured:
ovarian cancer A2780 = experiment: Cell biological activity detection (CyQuant, 72 hours), A2780; format: cell-based, human; conditions: A2780 cells, incubation for 72 hours
Method: (§1) A2780 and HCC70 cells were subjected to trypsin digestion treatment, and cell suspensions were respectively transferred to 15 mL centrifuge tubes and centrifuged for 5 min at […]) rpm; supernatant was discarded, and resuspension was carried out in a fresh medium (RPMI 1640+10% FBS), after counting, cells were seeded into a 384-well plate at 2000/well (50 μL of 1640+10% FBS medium was added to the 2nd column and the 23rd column of the 384-well plate, and 50 μL of DPBS was added to the surrounding wells). Incubation was carried out overnight in an incubator (37° C., 5% CO2).
(§2) The compound was added to the well plates the next day. The compound had the highest concentration of 10 μM and was diluted at 1:4, and there were a total of 9 concentrations; and a positive compound Paclitaxel had the highest concentration of 1 μM and was diluted at 1:3, and there were a total of 9 concentrations. The DMSO content in each well was unified to 0.2%. The cell plates were centrifuged for 30 seconds at 800 rpm and placed in an incubator (37° C., 5% CO2) for incubation for 72 hours. On the fourth day, a Cyquant reagent (3×) was formulated according to kit instructions, and formulation was carried out for each 384-well plate according to the following proportions: DPBS 11.568 mL, CyQuant®? Direct nucleic acid stain 72 μL, and CyQuant® Direct background suppressor 360 μL. After uniform mixing, the reagent was placed at room temperature for further use. The cell plates were taken out and equilibrated for 30 min at room temperature, and 25 μL of the Cyquant reagent (3×) per well was dispensed into the cells of the 384-well plates by Multi-drop, and incubation was carried out for more than 60 minutes at 37° C. Acumen plate reading (Acumen setting: an excitation wavelength of 488 nm). IC50 results were analyzed by XLFIT5 from IDBS Company.

[1] = system: human breast cancer cells HCC70; experiment: Cell biological activity detection (CyQuant, 72 hours), HCC70; format: cell-based; conditions: incubation for 72 hours
Method: as §1, §2

[2] = target: CDK7/cyclinH/MAT1 complex (Homo sapiens, UniProt P50613); experiment: In-vitro enzymatic inhibitory activity testing, CDK7 inhibition assay (Caliper EZ Reader II); format: biochemical; conditions: CDK7/cyclinH/MAT1 6 nM, 180 min at 27° C.
Method in brief: (§3)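 Enzyme preincubated 10 min with compound, then peptide substrate plus ATP added in 80 mM MES pH 6.5, 10 mM MgCl2 buffer; 180 min at 27 °C, stopped with EDTA.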

CDK2/cyclinE1 complex = CDK2/cyclinE1 complex (Homo sapiens, UniProt P24941); experiment: In-vitro enzymatic inhibitory activity testing, CDK2 inhibition assay (Caliper EZ Reader II); format: biochemical; conditions: CDK2/cyclinE1 0.5 nM, 180 min at 27° C.
Method in brief: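 CDK2/cyclinE1 (0.5 nM) phosphorylated 5-FAM-CDK7tide (2 μM) in MES buffer pH 6.5 with MgCl2, Tween 20 and BSA. Substrate and product were separated electrophoretically on a Caliper EZ Reader II. IC50 values came from nonlinear dose-response fits.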

CDK9/cyclinT1 complex = CDK9/cyclinT1 complex (Homo sapiens, UniProt P50750); experiment: In-vitro enzymatic inhibitory activity testing, CDK9 inhibition assay (Caliper EZ Reader II); format: biochemical; conditions: CDK9/cyclinT1 8 nM, 180 min at 27° C.
Method in brief: as §3

[3] = target: T1, CDK12 (aa686-1082)/cyclinK complex (Homo sapiens, UniProt Q9NYV4); experiment: In-vitro enzymatic inhibitory activity testing, CDK12 inhibition assay (Caliper EZ Reader II); format: biochemical; conditions: CDK12/cyclinK 50 nM, 180 min at 27° C.; read-out: CDK12 IC50
T1 construct: A CDK12 (aa686-1082)/cyclinK complex (50 nM)
Method in brief: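 Caliper EZ Reader II mobility-shift separation of 5-FAM-CDK9tide substrate (2 μM) from phosphoproduct, using 50 nM CDK12 (aa686-1082)/cyclinK in 80 mM MES pH 6.5, 10 mM MgCl2, 0.01% Tween 20, 50 ug/mL BSA. Compound pre-incubated 10 min with enzyme, then substrate/ATP added for 180 min at 27° C; EDTA stop. IC50 by nonlinear dose-response regression.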

T1 sequence (Q9NYV4 686-1082, species assumed): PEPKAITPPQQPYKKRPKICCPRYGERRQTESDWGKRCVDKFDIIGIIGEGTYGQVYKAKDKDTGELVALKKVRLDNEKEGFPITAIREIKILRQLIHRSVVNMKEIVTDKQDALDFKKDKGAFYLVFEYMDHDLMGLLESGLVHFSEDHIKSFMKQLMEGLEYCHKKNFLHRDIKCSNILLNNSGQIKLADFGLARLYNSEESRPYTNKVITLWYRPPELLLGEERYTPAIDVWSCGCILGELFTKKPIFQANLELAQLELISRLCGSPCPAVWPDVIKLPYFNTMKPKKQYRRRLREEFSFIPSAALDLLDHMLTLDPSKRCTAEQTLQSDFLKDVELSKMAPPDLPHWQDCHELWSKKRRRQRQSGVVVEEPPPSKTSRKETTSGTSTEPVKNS
T1 sequence (O75909 whole entry partner, species assumed, the tested form may be a part): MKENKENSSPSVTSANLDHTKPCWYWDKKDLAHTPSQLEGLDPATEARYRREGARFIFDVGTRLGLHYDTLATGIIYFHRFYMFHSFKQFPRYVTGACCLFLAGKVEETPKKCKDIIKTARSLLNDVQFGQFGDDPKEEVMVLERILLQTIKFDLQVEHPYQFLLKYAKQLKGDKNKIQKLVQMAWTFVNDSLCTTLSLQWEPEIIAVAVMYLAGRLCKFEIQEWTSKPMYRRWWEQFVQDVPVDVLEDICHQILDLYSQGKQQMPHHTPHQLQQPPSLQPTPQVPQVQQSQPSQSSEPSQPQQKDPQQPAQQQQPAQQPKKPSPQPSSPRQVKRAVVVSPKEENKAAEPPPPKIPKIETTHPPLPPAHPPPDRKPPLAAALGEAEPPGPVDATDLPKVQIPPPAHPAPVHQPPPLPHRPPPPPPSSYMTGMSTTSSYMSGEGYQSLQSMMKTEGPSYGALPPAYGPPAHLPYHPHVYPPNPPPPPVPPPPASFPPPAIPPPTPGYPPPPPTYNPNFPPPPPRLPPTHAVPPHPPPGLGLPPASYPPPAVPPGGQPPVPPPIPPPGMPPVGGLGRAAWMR
CDK7/cyclinH/MAT1 complex, sequence (P50613 whole entry, species assumed): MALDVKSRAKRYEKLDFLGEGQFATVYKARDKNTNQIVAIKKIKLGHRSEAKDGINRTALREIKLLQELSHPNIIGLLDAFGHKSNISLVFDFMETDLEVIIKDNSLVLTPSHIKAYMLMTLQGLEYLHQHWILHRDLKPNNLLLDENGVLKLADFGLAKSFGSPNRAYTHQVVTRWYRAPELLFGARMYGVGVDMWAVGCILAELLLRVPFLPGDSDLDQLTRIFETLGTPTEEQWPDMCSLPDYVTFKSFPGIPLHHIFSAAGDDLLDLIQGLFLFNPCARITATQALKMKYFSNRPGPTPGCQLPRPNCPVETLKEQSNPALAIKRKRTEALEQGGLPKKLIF
CDK7/cyclinH/MAT1 complex, sequence (P51946 whole entry partner, species assumed): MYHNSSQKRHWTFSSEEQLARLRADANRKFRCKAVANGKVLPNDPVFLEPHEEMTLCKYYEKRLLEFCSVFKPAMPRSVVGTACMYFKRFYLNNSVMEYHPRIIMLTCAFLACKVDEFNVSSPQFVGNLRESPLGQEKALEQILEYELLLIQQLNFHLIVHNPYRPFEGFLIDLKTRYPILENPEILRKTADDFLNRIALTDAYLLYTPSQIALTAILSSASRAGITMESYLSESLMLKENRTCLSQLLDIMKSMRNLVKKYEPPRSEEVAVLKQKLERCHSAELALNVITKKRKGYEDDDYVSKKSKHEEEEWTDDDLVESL
CDK7/cyclinH/MAT1 complex, sequence (P51948 whole entry partner, species assumed): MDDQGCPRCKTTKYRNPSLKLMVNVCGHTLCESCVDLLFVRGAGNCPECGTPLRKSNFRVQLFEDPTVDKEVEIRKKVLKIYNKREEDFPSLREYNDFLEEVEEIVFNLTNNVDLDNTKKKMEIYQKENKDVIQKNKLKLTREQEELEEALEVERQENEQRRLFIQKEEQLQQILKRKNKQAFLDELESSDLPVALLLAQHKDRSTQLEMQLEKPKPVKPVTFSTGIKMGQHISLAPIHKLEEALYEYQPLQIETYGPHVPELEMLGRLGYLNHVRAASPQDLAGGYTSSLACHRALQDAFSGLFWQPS
CDK9/cyclinT1 complex, sequence (P50750 whole entry, species assumed): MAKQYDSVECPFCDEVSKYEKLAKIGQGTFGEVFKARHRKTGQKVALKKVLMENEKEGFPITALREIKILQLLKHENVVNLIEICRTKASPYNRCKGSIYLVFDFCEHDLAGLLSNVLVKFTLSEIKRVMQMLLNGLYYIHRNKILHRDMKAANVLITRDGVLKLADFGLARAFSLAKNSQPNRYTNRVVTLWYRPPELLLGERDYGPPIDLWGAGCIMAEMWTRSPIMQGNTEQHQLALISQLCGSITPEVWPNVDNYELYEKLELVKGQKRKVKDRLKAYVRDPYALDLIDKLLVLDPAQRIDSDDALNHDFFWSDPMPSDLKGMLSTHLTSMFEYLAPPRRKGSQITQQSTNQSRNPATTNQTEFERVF
CDK9/cyclinT1 complex, sequence (O60563 whole entry partner, species assumed): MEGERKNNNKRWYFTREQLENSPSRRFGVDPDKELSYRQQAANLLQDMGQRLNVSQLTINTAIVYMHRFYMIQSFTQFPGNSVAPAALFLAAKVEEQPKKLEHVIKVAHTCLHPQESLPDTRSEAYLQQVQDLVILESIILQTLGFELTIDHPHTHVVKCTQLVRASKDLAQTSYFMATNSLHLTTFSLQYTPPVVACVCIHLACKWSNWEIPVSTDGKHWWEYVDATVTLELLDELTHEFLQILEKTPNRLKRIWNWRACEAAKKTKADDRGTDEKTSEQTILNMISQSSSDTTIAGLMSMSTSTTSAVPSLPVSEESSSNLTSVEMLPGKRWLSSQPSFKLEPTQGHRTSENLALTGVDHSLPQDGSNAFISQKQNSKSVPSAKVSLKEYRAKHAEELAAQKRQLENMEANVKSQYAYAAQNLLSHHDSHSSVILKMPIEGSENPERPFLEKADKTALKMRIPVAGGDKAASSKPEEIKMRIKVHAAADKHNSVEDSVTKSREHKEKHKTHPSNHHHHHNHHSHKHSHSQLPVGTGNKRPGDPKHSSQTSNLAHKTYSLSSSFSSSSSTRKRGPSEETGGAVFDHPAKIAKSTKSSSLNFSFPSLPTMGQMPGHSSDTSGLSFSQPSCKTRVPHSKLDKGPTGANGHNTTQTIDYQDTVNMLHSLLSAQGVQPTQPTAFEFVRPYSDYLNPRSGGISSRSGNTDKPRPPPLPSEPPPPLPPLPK

IC50 (ovarian cancer A2780; Homo sapiens, A2780, 72 h) [µM]	IC50 [2] [µM]	IC50 (CDK2/cyclinE1 complex) [µM]	IC50 (CDK9/cyclinT1 complex) [µM]	IC50 [3] [µM]	IC50 (ovarian cancer A2780) [µM]	SMILES	IC50 ([1]; Homo sapiens, HCC70, 72 h) [µM]	IC50 [1] [µM]
0.02 to 0.2	0.02 to 0.2	> 50	> 50	> 50	–	CP(C)(=O)c1c(C#N)ccc2c(-c3nc(N[C@@H]4CCC45CNC5)ncc3C(F)(F)F)c[nH]c12 [Compound 77, (R)-3-(2-((2-azaspiro[3.3]heptan-5-yl)amino)-5-(trifluoromethyl)pyrimidin-4-yl)-7-(dimethylphosphoryl)-1H-indole-6-carbonitrile]	0.02 to 0.2	–
–	0.02 to 0.2	5 to 50	> 50	> 50	0.2 to 5	CP(C)(=O)c1cccc2c(-c3nc(NCC4(O)CCOC4)ncc3C(F)(F)F)c[nH]c12 (single isomer, unassigned) [Compound 122]	–	0.02 to 0.2
–	0.02 to 0.2	5 to 50	> 50	> 50	< 0.02	CP(C)(=O)c1cccc2c(-c3nc(NC4CC45CCNC5)ncc3C(F)(F)F)c[nH]c12 (single isomer, unassigned) [Compound 111]	–	0.02 to 0.2
0.02 to 0.2	0.02 to 0.2	5 to 50	> 50	> 50	–	CP(C)(=O)c1cccc2c(-c3nc(NC4(CO)CCCC4)ncc3C(F)(F)F)c[nH]c12 [Compound 116, (3-(2-((1-(hydroxymethyl)cyclopentyl)amino)-5-(trifluoromethyl)pyrimidin-4-yl)-1H-indole-7-yl)dimethylphosphine oxide]	0.02 to 0.2	–
0.02 to 0.2	0.02 to 0.2	5 to 50	5 to 50	> 50	–	CP(C)(=O)c1cccc2c(-c3nc(NCC4(O)CCC4)ncc3C(F)(F)F)c[nH]c12 [Compound 90]	0.02 to 0.2	–
0.2 to 5	0.02 to 0.2	> 50	> 50	> 50	–	CP(C)(=O)c1cccc2c(-c3nc(NC4(CO)CCOCC4)ncc3C(F)(F)F)c[nH]c12 [Compound 166, (3-(2-((4-(hydroxymethyl)tetrahydro-2H-pyran-4-yl)amino)-5-(trifluoromethyl)pyrimidin-4-yl)-1H-indole-7-yl)dimethylphosphine oxide]	0.2 to 5	–
0.2 to 5	0.02 to 0.2	> 50	> 50	5 to 50	–	CC1(C)COC[C@@H](Nc2ncc(C(F)(F)F)c(-c3c[nH]c4nc(C#N)ccc34)n2)CN1 (single isomer, unassigned) [Compound 64]	0.2 to 5	–
0.02 to 0.2	< 0.02	5 to 50	5 to 50	5 to 50	–	N#Cc1ccc2c(-c3nc(N[C@H]4CC[C@H](N)C4)ncc3C(F)(F)F)c[nH]c2n1 [Compound 65, 3-(2-(((1S,3S)-3-aminocyclopentyl)amino)-5-(trifluoromethyl)pyrimidin-4-yl)-1H-pyrrolo[2,3-b]pyridine-6-carbonitrile]	0.02 to 0.2	–
0.02 to 0.2	< 0.02	5 to 50	> 50	> 50	–	CP(C)(=O)c1cccc2c(-c3nc(NCC(O)C(F)(F)F)ncc3C(F)(F)F)c[nH]c12 (single isomer, unassigned) [Compound 146]	–	0.02 to 0.2
0.02 to 0.2	0.02 to 0.2	5 to 50	> 50	> 50	–	CP(C)(=O)c1cccc2c(-c3nc(N[C@H]4CCCC[C@@H]4O)ncc3C(F)(F)F)c[nH]c12 [Compound 165, (3-(2-(((1S,2S)-2-hydroxycyclohexyl)amino)-5-(trifluoromethyl)pyrimidin-4-yl)-1H-indole-7-yl)dimethylphosphine oxide]	0.02 to 0.2	–
–	< 0.02	5 to 50	> 50	5 to 50	< 0.02	CP(C)(=O)c1cccc2c(-c3nc(NC4CC45CCNC5)ncc3C(F)(F)F)c[nH]c12 (single isomer, unassigned) [Compound 110]	–	0.02 to 0.2
0.02 to 0.2	0.02 to 0.2	> 50	> 50	> 50	–	CC1(C)COCC(Nc2ncc(C(F)(F)F)c(-c3c[nH]c4c(P(C)(C)=O)c(C#N)ccc34)n2)CN1 (stereo not drawn) [Compound 76, 3-(2-((3,3-dimethyl-1,4-oxazepan-6-yl)amino)-5-(trifluoromethyl)pyrimidin-4-yl)-7-(dimethylphosphoryl)-1H-indole-6-carbonitrile]	0.02 to 0.2	–
0.2 to 5	0.02 to 0.2	0.2 to 5	5 to 50	0.2 to 5	–	FC(F)(F)c1cnc(NC2CCCNCC2)nc1-c1c[nH]c2nc(N3CCOCC3)ccc12 (single isomer, unassigned) [Compound 48]	0.2 to 5	–
0.2 to 5	0.02 to 0.2	5 to 50	> 50	5 to 50	–	C[C@@H]1C[C@H](Nc2ncc(C(F)(F)F)c(-c3c[nH]c4nc(N5CCOCC5)ccc34)n2)CCN1 [Compound 54, N-((2R,4R)-2-methylpiperidin-4-yl)-4-(6-morpholinyl-1H-pyrrolo[2,3-b]pyridin-3-yl)-5-(trifluoromethyl)pyrimidin-2-amine]	0.2 to 5	–
0.2 to 5	0.02 to 0.2	5 to 50	> 50	> 50	–	CP(C)(=O)c1cccc2c(-c3nc(NCC4(O)CCOC4)ncc3C(F)(F)F)c[nH]c12 (single isomer, unassigned) [Compound 121]	0.02 to 0.2	–
0.02 to 0.2	0.02 to 0.2	5 to 50	0.2 to 5	0.2 to 5	–	FC(F)(F)c1cnc(N[C@H]2CCCNC2)nc1-c1c[nH]c2cc(N3CCCC3)ccc12 [Compound 101, (S)—N-(piperidin-3-yl)-4-(6-(pyrrolidin-1-yl)-1H-indole-3-yl)-5-(trifluoromethyl)pyrimidin-2-amine, reference compound]	0.2 to 5	–
0.02 to 0.2	< 0.02	5 to 50	5 to 50	5 to 50	–	FC(F)(F)c1cnc(NC2CCC23CNC3)nc1-c1c[nH]c2nc(N3CCOCC3)ccc12 (stereo not drawn) [Compound 39, N-(4-(6-morpholinyl-1H-pyrrolo[2,3-b]pyridin-3-yl)-5-(trifluoromethyl)pyrimidin-2-yl)-2-azaspiro[3.3]heptan-5-amine]	0.02 to 0.2	–
0.2 to 5	0.2 to 5	5 to 50	5 to 50	5 to 50	–	FC(F)(F)c1cnc(NC2COC3(CCNCC3)C2)nc1-c1c[nH]c2nc(N3CCOCC3)ccc12 (stereo not drawn) [Compound 51, N-(4-(6-morpholinyl-1H-pyrrolo[2,3-b]pyridin-3-yl)-5-(trifluoromethyl)pyrimidin-2-yl)-1-oxa-8-azaspiro[4.5]decan-3-amine]	0.2 to 5	–
0.2 to 5	0.2 to 5	5 to 50	5 to 50	5 to 50	–	FC(F)(F)c1cnc(NC2C3CNCC32)nc1-c1c[nH]c2nc(N3CCOCC3)ccc12 (stereo not drawn) [Compound 46, N-(4-(6-morpholinyl-1H-pyrrolo[2,3-b]pyridin-3-yl)-5-(trifluoromethyl)pyrimidin-2-yl)-3-azabicyclo[3.1.0]n-hexan-6-amine]	0.2 to 5	–
–	0.02 to 0.2	> 50	> 50	> 50	0.02 to 0.2	CP(C)(=O)c1cccc2c(-c3nc(NCC(O)C(F)(F)F)ncc3C(F)(F)F)c[nH]c12 (single isomer, unassigned) [Compound 147]	–	0.2 to 5
